We go through 3 compounds from patent publication US20160159789A1, “SUBSTITUTED PYRAZOLOPYRIDINES” (BAYER PHARMA AKTIENGESELLSCHAFT, priority 2013, published 2016).

By IC50 is commonly meant the concentration that inhibits the measured activity by half.

This assay deals with T1, human full-length MKNK1 (Homo sapiens, UniProt Q9BUB5, T385D).
T1 construct: purchased Carna Biosciences 02-145; host or cells: insect cells (baculovirus expression system)
T1 sequence (Q9BUB5 1-424 isoform Q9BUB5-2 T344D): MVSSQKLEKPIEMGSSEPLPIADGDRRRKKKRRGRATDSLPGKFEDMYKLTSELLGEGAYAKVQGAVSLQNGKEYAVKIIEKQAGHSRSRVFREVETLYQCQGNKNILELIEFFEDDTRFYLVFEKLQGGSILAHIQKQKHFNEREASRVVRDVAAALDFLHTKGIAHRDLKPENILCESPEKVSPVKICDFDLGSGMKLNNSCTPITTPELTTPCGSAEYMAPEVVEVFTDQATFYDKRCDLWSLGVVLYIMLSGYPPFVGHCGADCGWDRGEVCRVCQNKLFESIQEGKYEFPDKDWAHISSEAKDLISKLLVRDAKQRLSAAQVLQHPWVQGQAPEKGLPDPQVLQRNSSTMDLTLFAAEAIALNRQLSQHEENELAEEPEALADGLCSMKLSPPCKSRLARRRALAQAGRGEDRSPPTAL
Description: MKNK1 kinase high ATP assay (TR-FRET). Format: biochemical. The settings on record: high ATP (2 mM final), 15 min preincubation with enzyme, GST-MKNK1 (T344D). Summed up:
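GST-tagged full-length human MKNK1 from insect cells, preincubated 15 min with compound at 22° C in HEPES pH 7.5/MgCl2/DTT buffer, then reacted 30 min with 2 mM ATP and 0.06 μM biotinylated peptide (final). Phosphopeptide detected by TR-FRET (anti-pS6 pSer236/Eu-ProteinG, streptavidin-XL665), 665/620 ratio normalised to no-enzyme and no-inhibitor controls.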
(In general: TR-FRET usually uses a lanthanide donor and a delayed reading to cut background.)
As for `CN(C)C1CN(C(=O)[C@H]2CCc3c(sc4ncnc(Nc5cc6cn[nH]c6cn5)c34)C2)C1` [Example 140, 10 [3-(Dimethylamino)azetidin-1-yl][(7S)-4-(1H-pyrazolo[3,4-c]pyridin-5-ylamino)-5,6,7,8-tetrahydro[1]benzothieno[2,3-d]pyrimidin-7-yl]methanone], half-maximal inhibition (IC50) was put at 2.4 nM.
`COc1nc2[nH]ncc2cc1Nc1ncnc2sc3c(c12)CC[C@H](C(=O)N1CC(N(C)C)C1)C3` [Example 141, [3-(Dimethylamino)azetidin-1-yl]{(7S)-4-[(6-methoxy-1H-pyrazolo[3,4-b]pyridin-5-yl)amino]-5,6,7,8-tetrahydro[1]benzothieno[2,3-d]pyrimidin-7-yl}methanone] showed an IC50 of 1.2 nM.
For `CN(C)C1CN(C(=O)[C@H]2CCc3c(sc4ncnc(Nc5cnc6[nH]ncc6c5)c34)C2)C1` [Example 142, [3-(Dimethylamino)azetidin-1-yl][(7S)-4-(1H-pyrazolo[3,4-b]pyridin-5-ylamino)-5,6,7,8-tetrahydro[1]benzothieno[2,3-d]pyrimidin-7-yl]methanone] the value was 11.8 nM.
